These results are taken from US20130123618A1, “Imaging Agents” (priority 2008, published 2013).

One data set has as its system 9L Rat gliosarcoma cells. The data set can be described thus: in vitro amino acid uptake in 9L cells. The class given is cell-based. The text has this:
(§1) Compounds have been evaluated in vitro for tumor binding specificity (i.e. uptake cells) using a variety of tumor cell lines available in the art, along with reference compounds such as Me-AlB and BCH. Detailed description of these assays can be found in Martarello et al. (2002) Journal of Medicinal Chemistry, 45:2250-2259 and McConathy et al. (2003) Nuclear Medicine and Biology, 30:477-490. These so called “amino acid uptake studies” are typically carried out with radiolabeled compounds in at least five phenotypically different human tumor cell lines (e.g., A549 lung carcinoma, MB468 breast carcinoma, DU145 prostate carcinoma-androgen independent, LnCap-androgen dependent, SKOV3 ovarian carcinoma, U87 glial blastoma, MIA PaCa-2 pancreas carcinoma, MDA MB231 breast carcinoma). These tumor cell lines can be grown either in vitro or in vivo with severe combined immunodeficiency (SCID) mice as a host. The afore-mentioned tumor cell lines are available at the Winship Cancer Institute of Emory University.
(§2) For the in vitro amino acid uptake studies, all cells can be grown to monolayer confluency in T-175 culture flasks [Corning, Corning, N.Y.] (approx. 1×10^8 cells/flask) in Dulbecco's Modified Eagle's Medium (DMEM) [Sigma, St. Louis, Mo.] in a humidified incubator (37° C., 5% CO2/95% air). […]
(§3) In the in vitro studies the uptake rate of each amino acid compound is measured in each tumor line, as well as the dominant transport mechanisms of each tumor cell line. After trypsinization, cells are resuspended in serum-free media, then counted on a hemocytometer, with viability assessed through Trypan blue staining. […] The vials are placed in a Cobra-II gamma counter (Packard, Meriden, Conn.), with the activity per cell number determined. […] Saline washes are performed as described above, and the filtered cells' radioactivity determined on the gamma counter. […]
(§4) The uptake of all compounds were measured in human and rat cancer cell lines and the dominant transport (“A” and “L”) mechanism of each culture were determined. […]

The subject of data set [1] is DU145 Human Prostate carcinoma cells. The data set can be described thus: in vitro amino acid uptake in DU145 cells. The class given is cell-based.
Text: as §1, §2, §3, §4

In data set [2] the test system is A549 Human Lung adenocarcinoma cells. Kind of data set: in vitro amino acid uptake in A549 cells. In kind it is cell-based.
Text: as §1, §2, §3, §4

A further data set relates to U87 Human Glioma cells. Kind of data set: in vitro amino acid uptake in U87 cells. In kind it is cell-based.
Text: as §1, §2, §3, §4

In data set [3] the test system is MIA PaCa-2 Human Pancreas carcinoma cells. Kind of data set: in vitro amino acid uptake in MIA PaCa-2 cells. The class given is cell-based. As to the method:
(§5) Compounds have been evaluated in vitro for tumor binding specificity (i.e. uptake cells) using a variety of tumor cell lines available in the art, along with reference compounds such as Me-AlB and BCH. Detailed description of these assays can be found in Martarello et al. (2002) Journal of Medicinal Chemistry, 45:2250-2259 and McConathy et al. (2003) Nuclear Medicine and Biology, 30:477-490. […]
as §3, §4

The test system of data set [4] is MDA MB231 Human Breast carcinoma cells. The data set can be described thus: in vitro amino acid uptake in MDA MB231 cells. The class given is cell-based. The method, then: as §5, §3, §4
In data set [5] the test system is SKOV3 Human Ovarian carcinoma cells. Kind of data set: in vitro amino acid uptake in SKOV3 cells. The class given is cell-based.
Text: as §1, §2, §3, §4

The subject of data set [6] is MDA MB468 Human Breast carcinoma cells. Kind of data set: in vitro amino acid uptake in MDA MB468 cells. The class given is cell-based.
Text: as §1, §2, §3, §4

The subject of data set [7] is LnCap Human Prostate carcinoma cells. The data set can be described thus: in vitro amino acid uptake in LnCap cells. In kind it is cell-based. As to the method: as §5, §3, §4
Data set [8] relates to A549, human lung cancer cells implanted in flanks. The data set can be described thus: tissue distribution in SCID mice bearing A549 tumors. In kind it is in vivo. The conditions noted are these: for tissue distribution, blood / tissue distribution, bone / tissue distribution, brain / tissue distribution, heart / tissue distribution, kidney / tissue distribution, liver / tissue distribution, lung / tissue distribution, muscle / tissue distribution, pancreas / tissue distribution, spleen / tissue distribution, tumor: A549 tumor-bearing SCID mice, tail vein, ave, listed as Anti 2-[^18F]FACPC Enantiomer 2. The method, then: (§6) For the in vitro amino acid uptake studies, all cells can be grown to monolayer confluency in T-175 culture flasks [Corning, Corning, N.Y.] (approx. 1×10^8 cells/flask) in Dulbecco's Modified Eagle's Medium (DMEM) [Sigma, St. Louis, Mo.] in a humidified incubator (37° C., 5% CO2/95% air). Media are supplemented with 10% fetal calf serum [Hyclone, Logan, Utah], and antibiotics (10,000 U/ml penicillin and 10 mg/ml streptomycin) (Sigma, St. Louis, Mo.). For tissue culture passage, monolayer cells are detached by gentle trypsinization, resuspended in complete media, and split 1:10 into new T-flasks. Cultures are passaged weekly, and fed fresh media every 2 to 3 days. To initiate tumor growth in SCID mice, 1×10^6 cells are injected s.c. bilaterally into the flanks (inguinal region) of the recipient animals using a 1 ml syringe with a 27 gauge needle. Ex vivo experiments can be performed with animals containing tumors weighing between 500 mg and 1 g, as estimated by caliper measurement (tumor weight=(π/6)*abc, where a, b and c are the tumor length, width and height, respectively).
(§7) Tissue distribution of the compounds is measured in SCID mice (average weight, 20-25 g) bearing human tumors as follows. The candidate radioligands (20 uCi in 0.4 ml 0.9% NaCl) are injected into the tail vein of tumor-bearing mice. […] Tissues (blood, heart, liver, lungs, kidneys, bone, thyroid, muscle, brain and tumor) are excised, rinsed in saline, and blotted dry. The tissues are weighed, placed into 12×75 mm glass vials, the radioactivity determined with a gamma counter, and the percent dose/gram calculated. Total activities of blood and muscle are calculated by assuming that they account for 7% and 40% of the total body mass, respectively.
(§8) Tables 3-7 show the results of the biodistribution studies with the separate enantiomers of anti-2-[^18F]FACPC and racemic anti-2-[^18F]FACBC as a comparison in SCiD mice implanted in their flanks with A549, human lung cancer cells and DU145, human prostate cancer cells.

In a further data set the test system is tumor cells. The data set can be described thus: overall conclusion of uptake studies in cancer cells in vitro. The class given is cell-based. The method, then:
In the in vitro studies the uptake rate of each amino acid compound is measured in each tumor line, as well as the dominant transport mechanisms of each tumor cell line. After trypsinization, cells are resuspended in serum-free media, then counted on a hemocytometer, with viability assessed through Trypan blue staining. Approximately 1×10^7 cells are exposed to each compound (15 μCi) in 15 ml of amino acid free media for 5, 10, 15, 30 and 60 minutes at 37° C. Cells are then centrifuged at 150×g for 5 minutes, rinsed in 5 ml cold-saline, recentrifuged, resuspended in 3 ml saline, and placed into 12×75 mm glass vials (Fisher, Pittsburgh, Pa.). The vials are placed in a Cobra-II gamma counter (Packard, Meriden, Conn.), with the activity per cell number determined. Inhibition studies determine the dominant transport mechanism (L, A or ASC) for each line [Martarello et al. (2002) supra; McConathy et al. (2003) supra]. For these studies, cells are exposed to the compounds for 30 minutes in amino acid free media containing one of three inhibitors (2-amino-norbornyl-2-carboxylic acid (BCH), 10 mM; α-(methylamino)-isobutyric acid (MeAlB), 10 mM; and an alanine-serine-cysteine mixture 1:1:1 (acs), 10 mM). Saline washes are performed as described above, and the filtered cells' radioactivity determined on the gamma counter. Comparisons with the 30 minute control uptake indicate the major transporters used. Results of these studies are found in FIGS. 1-18.
Approximately 10^6 cells were exposed to the [^18F]amino acid candidate (5 μCi) in 3 ml of amino acid-free media±transporter inhibitors (10 mM) for 30 minutes under incubation conditions by the method previously described (McConathy, J.; Martarello, L.; Malveaux, E.; Camp, V.; Bowers, G.; Olson, J.; Goodman, M. (2002) Radiolabeled amino acids for tumor imaging with PET: radiosynthesis and biological evaluation of [^18F]2-amino-3-fluoro-2-methylpropanoic acid and [^18F]3-fluoro-2-methyl-2-(methylamino)-propanoic acid. J. Med. Chem. 45, 2240-2249). The inhibition studies determined the dominant transport mechanism (L, A) for each candidate PET amino acid for each tumor model. 2-Methylaminoisobutyric acid (MeAlB) and 2-aminobicyclo-[2.2.1]-heptane-2-carboxylic acid (BCH) serve as inhibitors for the “A”, “L” transport systems, respectively.

The subject of another data set is Morris 51236 hepatomas. The conditions noted are these: cited from earlier work.
The next data set deals with tumor lesions. The conditions noted are these: 7 human subjects, PET scanner; cited from earlier work.
Data set [9] has as its system DU145, human prostate cancer cells implanted in flanks. The data set can be described thus: tissue distribution in SCID mice bearing DU145 tumors. The class given is in vivo. The conditions noted are these: DU145 tumors, SCID mice, time points sampled post injection. As to the method:
as §6, §7, §8

Data set [10] concerns tumor lesions in 33 patients. The conditions noted are these: single photon rectilinear scanner; cited from earlier work.
Setting [11] is: carbon-14 labeled, rats transplanted with Morris 51236 hepatomas.

Where two headings read alike, the source gives them in different places.

For `N[C@]1(C(=O)O)CCC[C@@H]1[18F]` (single isomer, unassigned; enantiomer 2) [Enantiomer 2, anti-2-[^18F]FACPC], the “% Dose uptake per 0.5 × 10−6 Cells” value in the data set on 9L Rat gliosarcoma cells was 7.5 % Dose/0.5 × 10^−6. In addition, the “% Dose uptake per 0.5 × 10−6 Cells” value in data set [1] was found to be 4.7 % Dose/0.5 × 10^−6. Further, the “% Dose uptake per 0.5 × 10−6 Cells” value in [2] stood at 9.6 % Dose/0.5 × 10^−6. In addition, the “% Dose uptake per 0.5 × 10−6 Cells” value in the data set on U87 Human Glioma cells stood at 17 % Dose/0.5 × 10^−6. The “% Dose uptake per 0.5 × 10−6 Cells” value in data set [3] amounted to 3.8 % Dose/0.5 × 10^−6. Besides, the “% Dose uptake per 0.5 × 10−6 Cells” value in data set [4] is reported as 6.4 % Dose/0.5 × 10^−6. Besides, in data set [5], the “% Dose uptake per 0.5 × 10−6 Cells” value is listed as 5.5 % Dose/0.5 × 10^−6. Besides, the “% Dose uptake per 0.5 × 10−6 Cells” value in data set [6] is 7.5 % Dose/0.5 × 10^−6. The “% Dose uptake per 0.5 × 10−6 Cells” value in data set [7] was 3.8 % Dose/0.5 × 10^−6. In [8] (15 min), the “tissue distribution, blood” value was 3.68 percent dose/gram; the “tissue distribution, bone” value stood at 2.50 percent dose/gram; the “tissue distribution, brain” value came out at 0.53 percent dose/gram; the “tissue distribution, heart” value amounted to 3.18 percent dose/gram. Further, in [8] (15 min), the “tissue distribution, kidney” value is listed as 10.81 percent dose/gram; the “tissue distribution, liver” value stood at 2.86 percent dose/gram; the “tissue distribution, lung” value amounted to 4.75 percent dose/gram; the “tissue distribution, muscle” value turned out to be 2.07 percent dose/gram. For the same compound, in data set [8] (15 min), the “tissue distribution, pancreas” value is given as 40.68 percent dose/gram; the “tissue distribution, spleen” value came to 9.37 percent dose/gram; the “tissue distribution, tumor” value came out at 8.13 percent dose/gram. In addition, in data set [8] (60 min), the “tissue distribution, blood” value turned out to be 1.17 percent dose/gram; the “tissue distribution, bone” value was determined as 1.77 percent dose/gram; the “tissue distribution, brain” value amounted to 0.58 percent dose/gram; the “tissue distribution, heart” value is 1.82 percent dose/gram. Besides, in data set [8] (60 min), the “tissue distribution, kidney” value turned out to be 3.73 percent dose/gram; the “tissue distribution, liver” value is 1.22 percent dose/gram; the “tissue distribution, lung” value is recorded as 1.77 percent dose/gram; the “tissue distribution, muscle” value came out at 1.78 percent dose/gram. Moreover, in data set [8] (60 min), the “tissue distribution, pancreas” value turned out to be 16.42 percent dose/gram; the “tissue distribution, spleen” value came to 2.95 percent dose/gram; the “tissue distribution, tumor” value came to 5.78 percent dose/gram. Further, the “selective uptake in tumor cells” value in the data set on tumor cells is listed as “selectively taken up in tumor cells”.

For the compound `NC1(C(=O)O)CC1` [ACPRC, 1-amino-cyclopropane-1-carboxylic acid], in the data set on Morris 51236 hepatomas (setting [11]), the tumor uptake was 1.2 % dose/g.

As to `NC1(C(=O)O)CCCC1` [ACPC, 1-amino-cyclopentane-1-carboxylic acid], in the data set with Morris 51236 hepatomas (setting [11]), the tumor uptake is given as 3.6 % dose/g.

For the compound `NC1([11C](=O)O)CCC1` [[^11C]ACBC, 1-aminocyclobutane-1-[^11C]carboxylic acid], the uptake in lesions result in the data set with tumor lesions is “increased uptake was observed in lesions in all subjects”.

Consider `NC1(C(=O)O)CCC1` [ACBC], for which, in the data set on Morris 51236 hepatomas (rat, in vivo), the tumor uptake is recorded as 4.6 % dose/g.

On to `NC1(C(=O)O)CCCCC1` [ACHC, 1-amino-cyclohexane-1-carboxylic acid], for which the tumor uptake in the data set with Morris 51236 hepatomas (setting [11]) is recorded as 0.9 % dose/g.

On to `N[C@]1(C(=O)O)CCC[C@@H]1[18F]` (mixture of isomers) [Enantiomer 13, (1S,2S) and (1R,2R) anti-1-amino-2-[^18F]fluorocyclopentyl-1-carboxylic acid], for which the “uptake of radioactivity in the tumors compared with muscle” value is “greater than muscle” in [8] (A549 tumors, SCID mice, time points sampled post injection) and “greater than muscle” in data set [9].

As for `NC1([11C](=O)O)CCCC1` [[^11C]ACPC, 1-Aminocyclopentane-1 [^11C]Carboxylic Acid], in data set [10], the “lesions with increased uptake” value is 70%. Further, in the data set with tumor lesions, the uptake in lesions entry is on record as “increased uptake was observed in lesions in all subjects”.
